The results in this text go back to paper PMC3700072, “Synthesis, Anti-Inflammatory, and Ulcerogenicity Studies of Novel Substituted and Fused Pyrazolo[3,4-d]pyrimidin-4-ones” (Scientia Pharmaceutica, 2013).

Series [1] deals with carrageenan-induced rat paw edema. As to the kind of experiment: carrageenan-induced rat paw edema test. It counts as in vivo. Also noted: Mean increase in edema weight ± SEM: unit not given here. The following applies: rats, 10 mg/kg intraperitoneally, 4 h after carrageenan; for inhibition in vivo at 10 mg/kg / change in vivo at 10 mg/kg: Rattus norvegicus, ip; for inhibition in vivo at 10 mg/kg: 4 h, read-out: %Inhibition of Paw edema from control group (edema reduction); for change in vivo at 10 mg/kg / Mean increase in edema weight ± SEM: N = 6; for change in vivo at 10 mg/kg: read-out: Mean % increase in edema weight ± SEM; for % Activity relative to indomethacine: indomethacin = 100. As to the method:
The in vivo anti-inflammatory effects of the newly synthesized pyrazolopyrimidine derivatives were assessed by utilizing the functional model of carrageenan-induced rat paw edema using indomethacin as the reference drug. Mean changes and the percent increase in paw edema weight of animals pretreated with the tested compounds after 4 h from the induction of inflammation were measured, together with the percent inhibition of induced rat paw edema by the tested compounds. The anti-inflammatory activity (relative potency) of the tested compounds relative to that of indomethacin was also calculated (Table 1) (Fig. 2).
The in vivo carrageenan-induced rat paw edema model of inflammation was used to evaluate the anti-inflammatory properties of the newly synthesized compounds according to the previously reported Winter et al. method.
Adult male albino rats weighing 100–120 g (obtained from the animal house of the department of Physiology, Faculty of Medicine, Alexandria University) were used throughout the work. Animals were randomly divided into groups of six rats each. They were kept in an animal house under standard conditions of light and temperature with free access to food and water ad libitum and allowed to be accustomed to their environment for two days before testing.
Indomethacin, used as a reference standard (Khahira for Pharmaceutical and Chemical Industry, Cairo, Egypt), and the test compounds were dissolved in DMSO and were injected intraperitoneally at a dose level of 10 mg/kg body weight. Control animals, on the other hand, were intraperitoneally injected with appropriate volume of DMSO only. After one hour of the above treatment, an inflammatory edema in the right hind paw of all animals was induced by subcutaneous injection of 0.05 ml of freshly prepared solution of 1% carrageenan (λ-Carrageenan Sigma–Aldrich Corp. St. Louis, MO, USA) in sterile normal saline (0.9%), into the subplantar tissue of the paw. An equal volume of saline was injected to the left hind paw and served as internal control for the degree of inflammation in the right hind paw.
Four hours after carrageenan injection, animals were decapitated and both the right and left hind paws were excised at a standard point and weighed. The difference in weight from edema between right and left paws was taken as a measure of the degree of inflammation for each animal. The mean increase in weight of the carrageenan-injected paw over the other paw in each group was measured and the percent increase of edema was calculated. The anti-inflammatory efficacy of the tested compounds was assessed by comparing the change in paw weight in the treated animals with that in control animals (treated with DMSO only) and expressed as a percent inhibition of the edema (percent protection against inflammation), calculated according to the following equation: % Inhibition of edema=(1-Wt/Wc)×100 where Wt is the mean increase in paw weight in rats treated with the test compounds and Wc is the mean increase in paw weight in the control group. The anti-inflammatory activity of the test compounds relative to that of indomethacin was also determined (Table 2).
In the anti-inflammatory study, data obtained were expressed as the mean ± standard error (SEM). Statistical significance was determined by comparing the values of the test compounds and the standard with those obtained from the control group of animals using One-way ANOVA with Dunnett’s post-test using the GraphPad Prism version 3.00 for Windows (GraphPad Software, San Diego California USA, www.graphpad.com). The difference in results was considered significant if P < 0.001.

The next series deals with gastric mucosa of rats. The experiment in a line: gastric ulcerogenic effect (Meshali's method, ulcer index by Robert's method). Type of series: in vivo, rat. Also noted: key to Ulcer index: ulcer index = %incidence/10 + avg no. of ulcers + avg severity (0–4). How it is done:
The ulcer index was calculated according to Robert’s method.
Adult male albino rats weighing between 100 and 120 g were used. Animals were divided into groups of five animals each. Rats were fasted 20 h before drug administration. Water was given ad libitum. The control group received the vehicle (1% gum acacia) orally. Other groups received indomethacin or test compounds orally in a dose of 10 mg/kg body weight suspended in 1% gum acacia. Rats were fasted for 2 h, allowed to feed for 2 h, then fasted for another 20 h. Rats were given another two doses on the second and third days. On the fourth day, rats were sacrificed by diethyl ether; the stomach of each rat was removed, opened along the greater curvature, and rinsed with cold 0.9% saline. The stomach was stretched, by pins, on a corkboard and inspected with a 3x magnifying lens for any evidence of mucosal damage. The ulcer index was calculated according to Robert’s method. The number of mucosal damage (red spots) was counted and their severity (ulcerogenic severity) was graded from 0 to 4 according to the following score assignment:
The following figures were calculated: • –– % Incidence/10 = [number of rats showing ulcer of any grade divided by total number of rats in the group × 100]/10. • –– Average number of ulcers: number of ulcers in the group/total number of rats in the group. • –– Average severity: Σ [each ulcer multiplied by its score of severity]/number of ulcers in the group. • Ulcer index = the sum of the 3 figures. • Results are tabulated in Table 2.

As usually defined, the melting point is the temperature, or range, at which the solid turns liquid.

For the compound `Cc1nc2c(cnn2-c2ccccc2)c(=O)n1N` [Compound 5, 5-Amino-6-methyl-1-phenyl-1,5-dihydro-4H-pyrazolo[3,4-d]pyrimidin-4-one], in series [1], the inhibition in vivo at 10 mg/kg was determined as 33.1%, the change in vivo at 10 mg/kg is 19.8 ± 1.6%, the “Mean increase in edema weight ± SEM” value came to 1.05 ± 0.089 and the “% Activity relative to indomethacine” value stood at 48.60%.

Turning to `Cc1nc2c(cnn2-c2ccccc2)c(=O)n1N=Cc1ccccc1` [Compound 7a, 5-(Benzylideneamino)-6-methyl-1-phenyl-1,5-dihydro-4H-pyrazolo[3,4-d]pyrimidin-4-one], the melting point fell in the range of 184 to 186 °C. Also, in series [1], the inhibition in vivo at 10 mg/kg is 34.4%, the change in vivo at 10 mg/kg turned out to be 15.3 ± 0.515%, the “Mean increase in edema weight ± SEM” value came out at 1.03 ± 0.033 and the “% Activity relative to indomethacine” value was 50.46%.

On to `Cc1nc2c(cnn2-c2ccccc2)c(=O)n1N=Cc1ccc(Cl)cc1` [Compound 7b, 5-[(4-Chlorobenzylidene)amino]-6-methyl-1-phenyl-1,5-dihydro-4H-pyrazolo[3,4-d]-pyrimidin-4-one], for which the melting point is 195 to 196 °C. In series [1], the inhibition in vivo at 10 mg/kg amounted to 36.3%, the change in vivo at 10 mg/kg is 15.2 ± 1.4%, the “Mean increase in edema weight ± SEM” value was found to be 1.00 ± 0.063 and the “% Activity relative to indomethacine” value stood at 53.28%.

Compound `Cc1nc2c(cnn2-c2ccccc2)c(=O)n1N1C(=O)CSC1c1ccccc1` (stereo not shown) [Compound 8a, 6-Methyl-5-(4-oxo-2-phenyl-1,3-thiazolidin-3-yl)-1-phenyl-1,5-dihydro-4H-pyrazolo[3,4-d]-pyrimidin-4-one] showed a melting point of 179 to 181 °C. In addition, in series [1], the inhibition in vivo at 10 mg/kg amounted to 37.6%, the change in vivo at 10 mg/kg is 12.5 ± 0.376%, the “Mean increase in edema weight ± SEM” value is given as 0.98 ± 0.017 and the “% Activity relative to indomethacine” value is recorded as 55.14%.

Take `Cc1nc2c(cnn2-c2ccccc2)c(=O)n1N1C(=O)CSC1c1ccc(Cl)cc1` (stereo not shown) [Compound 8b, 5-[2-(4-Chlorophenyl)-4-oxo-1,3-thiazolidin-3-yl]-6-methyl-1-phenyl-1,5-dihydro-4H-pyrazolo[3,4-d]pyrimidin-4-one]: the melting point was in the range of 191 to 195 °C. In series [1], the inhibition in vivo at 10 mg/kg amounted to 40.8%, the change in vivo at 10 mg/kg was determined as 13 ± 0.702%, the “Mean increase in edema weight ± SEM” value came to 0.93 ± 0.042 and the “% Activity relative to indomethacine” value is listed as 59.81%.

`Cc1nc2c(cnn2-c2ccccc2)c(=O)n1NC(=S)Nc1ccccc1` [Compound 9a, 1-(6-Methyl-4-oxo-1-phenyl-1,4-dihydro-5H-pyrazolo[3,4-d]pyrimidin-5-yl)-3-phenylthiourea] had a melting point of 145 to 150 °C. In series [1], the inhibition in vivo at 10 mg/kg amounted to 42.7%, the change in vivo at 10 mg/kg turned out to be 12.7 ± 0.748%, the “Mean increase in edema weight ± SEM” value is reported as 0.90 ± 0.058 and the “% Activity relative to indomethacine” value stood at 62.63%.

On to `Cc1nc2c(cnn2-c2ccccc2)c(=O)n1NC(=S)Nc1ccc(Cl)cc1` [Compound 9b, 1-(4-Chlorophenyl)-3-(6-methyl-4-oxo-1-phenyl-1,4-dihydro-5H-pyrazolo[3,4-d]pyrimidin-5-yl)thiourea], for which the melting point is 157 to 160 °C. Also, in series [1], the inhibition in vivo at 10 mg/kg was 47.8%, the change in vivo at 10 mg/kg was 15.7 ± 1.03%, the “Mean increase in edema weight ± SEM” value is 0.82 ± 0.048 and the “% Activity relative to indomethacine” value stood at 70.10%.

Consider `Cc1nc2c(cnn2-c2ccccc2)c(=O)n1N=C1SCC(=O)N1c1ccccc1` [Compound 10a, 6-Methyl-5-[(4-oxo-3-phenyl-1,3-thiazolidin-2-ylidene)amino]-1-phenyl-1,5-dihydro-4H-pyrazolo[3,4-d]pyrimidin-4-one], for which the melting point lay within 264 to 267 °C. In series [1], the inhibition in vivo at 10 mg/kg was found to be 52.2%, the change in vivo at 10 mg/kg is 9.5 ± 0.326%, the “Mean increase in edema weight ± SEM” value is reported as 0.75 ± 0.022 and the “% Activity relative to indomethacine” value is listed as 76.64%.

As for `Cc1nc2c(cnn2-c2ccccc2)c(=O)n1N1C(=O)CC(=O)N(c2ccccc2)C1=S` [Compound 12a, 1-(6-Methyl-4-oxo-1-phenyl-1,4-dihydro-5H-pyrazolo[3,4-d]pyrimidin-5-yl)-3-phenyl-2-thioxodihydropyrimidine-4,6(1H,5H)-dione], in series [1], the inhibition in vivo at 10 mg/kg stood at 35%, the change in vivo at 10 mg/kg was found to be 13.6 ± 0.795% and the “Mean increase in edema weight ± SEM” value turned out to be 1.02 ± 0.060.

As to `Cc1nc2c(cnn2-c2ccccc2)c(=O)n1N1C(=O)CC(=O)N(c2ccc(Cl)cc2)C1=S` [Compound 12b, 1-(4-Chlorophenyl)-3-(6-methyl-4-oxo-1-phenyl-1,4-dihydro-5H-pyrazolo[3,4-d]pyrimidin-5-yl)-2-thioxodihydropyrimidine-4,6(1H,5H)-dione], the melting point is 198 to 201 °C. In series [1], the inhibition in vivo at 10 mg/kg was determined as 45.9%, the change in vivo at 10 mg/kg came out at 19.3 ± 0.905%, the “Mean increase in edema weight ± SEM” value was 0.85 ± 0.043 and the “% Activity relative to indomethacine” value is recorded as 67.29%.

In turn, `Nn1c(C=O)nc2c(cnn2-c2ccccc2)c1=O` [Compound 13, 5-Amino-4-oxo-1-phenyl-4,5-dihydro-1H-pyrazolo[3,4-d]pyrimidine-6-carbaldehyde] returned a melting point of 145 to 146 °C. In series [1], the inhibition in vivo at 10 mg/kg is 39.5%, the change in vivo at 10 mg/kg was 15.1 ± 1.07%, the “Mean increase in edema weight ± SEM” value came to 0.95 ± 0.043 and the “% Activity relative to indomethacine” value turned out to be 57.95%.

The compound `CCOC(=O)c1cc2nc3c(cnn3-c3ccccc3)c(=O)n2nc1N` [Compound 14, Ethyl 7-amino-4-oxo-1-phenyl-1,4-dihydropyrazolo[3′,4′:4,5]pyrimido[1,2-b]-pyridazine-8-carboxylate] displayed a melting point of 155 to 156 °C. Further, in series [1], the inhibition in vivo at 10 mg/kg is 44.6%, the change in vivo at 10 mg/kg was determined as 11.1 ± 1.14%, the “Mean increase in edema weight ± SEM” value is recorded as 0.87 ± 0.076 and the “% Activity relative to indomethacine” value was 65.43%.

As to `COc1ccc2c(c1)c(CC(=O)O)c(C)n2C(=O)c1ccc(Cl)cc1` [Indomethacin, reference compound], in series [1], the inhibition in vivo at 10 mg/kg was found to be 68.2%, the change in vivo at 10 mg/kg is 6.37 ± 0.366%, the “Mean increase in edema weight ± SEM” value turned out to be 0.50 ± 0.026 and the “% Activity relative to indomethacine” value is reported as 100.0%. Besides, the “% ulceration in the population of test animals” value in the series on gastric mucosa of rats (oral 10 mg/kg) worked out at 100%. In addition, the “Average No. of ulcer” value with gastric mucosa of rats (oral 10 mg/kg on three days) came to 4.4. In addition, in the series on gastric mucosa of rats (oral 10 mg/kg on three days, 5 animals per group), the “% Incidence/10” value was determined as 10. Further, the “% Ulcerogenicity relative to indomethacin” value in the series on gastric mucosa of rats (oral 10 mg/kg on three days, indomethacin = 100) is recorded as 100.00%. In the series with gastric mucosa of rats (oral 10 mg/kg on three days, score 0 to 4), the Average severity is on record as 2.86. The Ulcer index with gastric mucosa of rats (oral 10 mg/kg on three days, sum of the 3 figures) was 17.26.
